Reference: patent publication US8785445B2 (Array BioPharma Inc., priority 2008, dated 2014)
Where two headings read alike, the source gives them in different places.

Molecular target: T1, human DP2 (Homo sapiens, UniProt Q9Y5Y4)
T1 construct: expressed in transfected cells; membranes prepared
T1 sequence (Q9Y5Y4 1-395): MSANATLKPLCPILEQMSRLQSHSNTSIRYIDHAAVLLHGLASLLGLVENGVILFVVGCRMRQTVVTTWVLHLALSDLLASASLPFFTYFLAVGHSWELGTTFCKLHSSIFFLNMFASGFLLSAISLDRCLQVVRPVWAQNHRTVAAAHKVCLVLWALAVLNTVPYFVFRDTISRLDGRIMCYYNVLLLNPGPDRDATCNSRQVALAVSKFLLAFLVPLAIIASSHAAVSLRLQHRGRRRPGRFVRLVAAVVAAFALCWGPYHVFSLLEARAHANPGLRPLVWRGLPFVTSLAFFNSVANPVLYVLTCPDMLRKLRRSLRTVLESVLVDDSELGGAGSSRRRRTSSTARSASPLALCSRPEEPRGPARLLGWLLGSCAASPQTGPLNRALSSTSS
Assay: DP-2 binding inhibition assay (3H-PGD2, membranes of DP2-expressing K562 cells)
In short: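 Membranes from K562 clones stably expressing human DP2 were incubated 60 min at room temperature with 3H-PGD2 and compound, with 0.1% BSA, 1% HSA or 4% HSA, then filtered and counted.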

[1] = 4% HSA, read-out: EC50 (nM) 4% HSA
[2] = 0.1% BSA, read-out: EC50 (nM) 0.1% BSA
[3] = 1% HSA, read-out: EC50 (nM) 1% HSA

| Compound | EC50 [1] | EC50 [2] | EC50 [3] |
| --- | --- | --- | --- |
| O=C(Nc1ccn(-c2ccc(F)cc2F)n1)c1ccc(Oc2cc3c(cc2Cl)C(C(=O)O)CCO3)cc1 (stereo not shown) [Example 168, 6-chloro-7-(4-(1-(2,4-difluorophenyl)-1H-pyrazol-3-ylcarbamoyl)phenoxy)chroman-4-carboxylic acid] | 112 nM |  |  |
| O=C(Nc1nnc(-c2ccc(Cl)cc2)s1)c1ccc(Oc2cc3c(cc2Cl)C(C(=O)O)CCO3)cc1 (stereo not shown) [Example 149, 6-chloro-7-(4-(5-(4-chlorophenyl)-1,3,4-thiadiazol-2-ylcarbamoyl)phenoxy)chroman-4-carboxylic acid] | 1660 nM |  |  |
| O=C(NCCc1cccnc1N1CCCCC1)c1ccc(Oc2cc3c(cc2Cl)C(C(=O)O)CCO3)cc1 (stereo not shown) [Example 226, 6-chloro-7-(4-(2-(2-(piperidin-1-yl)pyridin-3-yl)ethylcarbamoyl)phenoxy) chroman-4-carboxylic acid] | 1920 nM |  |  |
| Cc1ccc(-c2csc(NC(=O)c3ccc(Oc4cc5c(cc4C#N)C(C(=O)O)CCO5)cc3)n2)cc1 (stereo not shown) [Example 205, 6-cyano-7-(4-(4-p-tolylthiazol-2-ylcarbamoyl)phenoxy) chroman-4-carboxylic acid] | 96.2 nM |  |  |
| O=C(Nc1cnc(-c2ccc(C(F)(F)F)cc2)cn1)c1ccc(Oc2cc3c(cc2Cl)C(C(=O)O)CCO3)cc1 (stereo not shown) [Example 61, Sodium 6-chloro-7-(4-(5-(4-(trifluoromethyl)phenyl)pyrazin-2-ylcarbamoyl)phenoxy)chroman-4-carboxylate] | 539 nM |  |  |
| O=C(Nc1ccc(-c2ccc(Cl)cc2)cn1)c1ccc(Oc2cc3c(cc2Cl)C(C(=O)O)CCO3)cc1 (stereo not shown) [Example 115, 6-Chloro-7-(4-(5-(4-chlorophenyl)pyridin-2-ylcarbamoyl)phenoxy)chroman-4-carboxylic acid] | 342 nM |  |  |
| O=C(Nc1cc(-c2ccccc2Cl)ccn1)c1ccc(Oc2cc3c(cc2Cl)C(C(=O)O)CCO3)cc1 (stereo not shown) [Example 122, 6-Chloro-7-(4-(4-(2-chlorophenyl)pyridin-2-ylcarbamoyl)phenoxy)chroman-4-carboxylic acid] | 2580 nM |  |  |
| O=C(Nc1nc2cc(Cl)ccc2o1)c1ccc(Oc2cc3c(cc2Cl)C(C(=O)O)CCO3)cc1 (stereo not shown) [Example 208, 6-chloro-7-(4-(5-chlorobenzo[d]oxazol-2-ylcarbamoyl)phenoxy) chroman-4-carboxylic acid] | 736 nM |  |  |
| O=C(Nc1cccc(C(F)(F)F)n1)c1ccc(Oc2cc3c(cc2Cl)C(C(=O)O)CCO3)cc1 (stereo not shown) [Example 28, 6-Chloro-7-(4-(6-(trifluoromethyl)pyridin-2-ylcarbamoyl)phenoxy)chroman-4-carboxylic acid] | 187 nM |  |  |
| O=C(Nc1cncc(-c2ccccc2)n1)c1ccc(Oc2cc3c(cc2Cl)C(C(=O)O)CCO3)cc1 (stereo not shown) [Example 32, 6-Chloro-7-(4-(6-phenylpyrazin-2-ylcarbamoyl)phenoxy)chroman-4-carboxylic acid] | 401 nM |  |  |
| O=C(Nc1ccn(-c2ccccc2)n1)c1ccc(Oc2cc3c(cc2Cl)C(C(=O)O)CCO3)cc1 (stereo not shown) [Example 171] | 97.5 nM |  |  |
| Cc1csc(NC(=O)c2ccc(Oc3cc4c(cc3C#N)C(C(=O)O)CCO4)cc2)n1 (stereo not shown) [Example 177, 6-cyano-7-(4-(4-methylthiazol-2-ylcarbamoyl)phenoxy)chroman-4-carboxylic acid] |  | 68.2 nM |  |
| N#Cc1cc2c(cc1Oc1ccc(C(=O)NCCc3ccc(C(F)(F)F)cn3)cc1)OCCC2C(=O)O (stereo not shown) [Example 11] |  | 47.6 nM | 183 nM |
| CC(C)(C)c1cc(NC(=O)c2ccc(Oc3cc4c(cc3Cl)C(C(=O)O)CCO4)cc2)no1 (stereo not shown) [Example 158, 7-(4-(5-tert-butylisoxazol-3-ylcarbamoyl)phenoxy)-6-chlorochroman-4-carboxylic acid] | 155 nM |  |  |
| COc1ccc2nc(NC(=O)c3ccc(Oc4cc5c(cc4C#N)C(C(=O)O)CCO5)cc3)sc2c1 (stereo not shown) [Example 197, 6-cyano-7-(4-(6-methoxybenzo[d]thiazol-2-ylcarbamoyl)phenoxy) chroman-4-carboxylic acid] |  | 9.3 nM | 146 nM |
| Cc1cc(C(=O)Nc2ccc(C(F)(F)F)nc2)ccc1Oc1cc2c(cc1C#N)C(C(=O)O)CCO2 (stereo not shown) [Example 14, 6-Cyano-7-(2-methyl-4-(6-(trifluoromethyl)pyridin-3-ylcarbamoyl)phenoxy)chroman-4-carboxylic acid] |  | 55.8 nM |  |
| N#Cc1cc2c(cc1Oc1ccc(C(=O)Nc3ccc(C(F)(F)F)cn3)cc1)OCCC2C(=O)O (stereo not shown) [Example 1, 7-(4-((5-(Trifluoromethyl)pyridin-2-yl)carbamoyl)phenoxy)-6-cyanochroman-4-carboxylic acid] |  | 19.3 nM |  |
| Cn1nc(C(C)(C)C)cc1NC(=O)c1ccc(Oc2cc3c(cc2Cl)C(C(=O)O)CCO3)cc1 (stereo not shown) [Example 178, 7-(4-(3-tert-butyl-1-methyl-1H-pyrazol-5-ylcarbamoyl)phenoxy)-6-chlorochroman-4-carboxylic acid] | 951 nM |  |  |
| O=C(Nc1cccc(C2CC2)n1)c1ccc(Oc2cc3c(cc2Cl)C(C(=O)O)CCO3)cc1 (stereo not shown) [Example 111, 6-Chloro-7-(4-(6-cyclopropylpyridin-2-ylcarbamoyl)phenoxy)chroman-4-carboxylic acid] | 1460 nM |  |  |
| O=C(Nc1cccc(-c2cccc(C(F)(F)F)c2)n1)c1ccc(Oc2cc3c(cc2Cl)C(C(=O)O)CCO3)cc1 (stereo not shown) [Example 112, 6-Chloro-7-(4-(6-(3-(trifluoromethyl)phenyl)pyridin-2-ylcarbamoyl)phenoxy)chroman-4-carboxylic acid] | 46 nM |  |  |
| O=C(Nc1ccc2cc(F)ccc2n1)c1ccc(Oc2cc3c(cc2Cl)C(C(=O)O)CCO3)cc1 (stereo not shown) [Example 18, 6-Chloro-7-(4-(6-fluoroquinolin-2-ylcarbamoyl)phenoxy)chroman-4-carboxylic acid] | 185 nM |  |  |
| CCOc1ncccc1CCNC(=O)c1ccc(Oc2cc3c(cc2Cl)C(C(=O)O)CCO3)cc1 (stereo not shown) [Example 213, 6-chloro-7-(4-(2-(2-ethoxypyridin-3-yl)ethylcarbamoyl)phenoxy) chroman-4-carboxylic acid] | 188 nM |  |  |
| O=C(Nc1cccc(-c2ccc(Cl)cc2)n1)c1ccc(Oc2cc3c(cc2Cl)C(C(=O)O)CCO3)cc1 (stereo in doubt) [Example 206, (R)-6-chloro-7-(4-(6-(4-chlorophenyl)pyridin-2-ylcarbamoyl)phenoxy) chroman-4-carboxylic acid] | 5000 nM |  |  |
| CCOc1cccc(NC(=O)c2ccc(Oc3cc4c(cc3Cl)C(C(=O)O)CCO4)cc2)n1 (stereo not shown) [Example 78, 6-Chloro-7-(4-(6-ethoxypyridin-2-ylcarbamoyl)phenoxy)chroman-4-carboxylic acid] | 740 nM |  |  |
| N#Cc1cc2c(cc1Oc1ccc(C(=O)Nc3nc4ccc(Cl)cc4s3)cc1)OCCC2C(=O)O (stereo not shown) [Example 196] |  | 11 nM | 352 nM |
| O=C(Nc1cnn(-c2cccc(Cl)c2)c1)c1ccc(Oc2c(Cl)cc3c(c2Cl)OCCC3C(=O)O)cc1 (stereo not shown) [Example 165, Sodium 6,8-dichloro-7-(4-(1-(3-chlorophenyl)-1H-pyrazol-4-ylcarbamoyl)phenoxy)chroman-4-carboxylate] | 187 nM |  |  |
| O=C(Nc1ccc(-c2ccc(Cl)cc2)nc1)c1ccc(Oc2cc3c(cc2Cl)C(C(=O)O)CCO3)cc1 (stereo not shown) [Example 123, 6-Chloro-7-(4-(6-(4-chlorophenyl)pyridin-3-ylcarbamoyl)phenoxy)chroman-4-carboxylic acid] | 294 nM |  |  |
| COc1ncc(CCNC(=O)c2ccc(Oc3cc4c(cc3Cl)C(C(=O)O)CCO4)cc2)c(OC)n1 (stereo not shown) [Example 220, 6-chloro-7-(4-(2-(2,4-dimethoxypyrimidin-5-yl)ethylcarbamoyl)phenoxy) chroman-4-carboxylic acid] | 379 nM |  |  |
